Measured values: US7728039B2, “Biphenyl and Naphthyl-Phenyl Hydroxamic Acid Derivatives” (Sigma-Tau Industrie Farmaceutiche Riunite S.p.A., priority 2005, dated 2010)
Like-named read-outs stand apart in the source and are kept apart here.

Columns and labels:
[1] = test system: NCI-H460 R9A tumour cells (H460/(R9A), resistant to carboxylic acid-bearing compounds); assay: Sulphorodamine B cytotoxicity test on ST1926-resistant NCI-H460 R9A cells; type: cell-based; details: for overcoming of resistance on H460/R9A: H460/R9A versus sensitive NCI-H460, result in words; for IC50: Homo sapiens, Table 3, resistant NCI-H460 R9A, SRB, read-out: IC50 ± SD, NCI-H460 R9A
Excerpt: (§1) The cytotoxic effect of some biphenyl and phenylnaphthyl compounds bearing a hydroxamic acid group is reported herein. […] The chemical structures of the tested compounds of the invention and of the corresponding compounds bearing a carboxylic acid group are reported in FIG. 1. To test the effects of the compounds on cell growth, NB4 human promyelocytic leukaemia, NCI-H460 non-small cell carcinoma cells, H460/(R9A) (resistant to carboxylic acid-bearing compounds: ST1898, ST1926, ST1964), HCT-116 human colon carcinoma cells, IGROV-1 and IGROV-1/Pt (sensitive ovarian carcinoma and platinum-resistant ovarian carcinoma cells, respectively) were used. NB4 and NCI-H460 tumour cells were grown in RPMI 1640 containing 10% foetal bovine serum (GIBCO), HCT-116 tumour cells were grown in McCoy's 5A containing 10% foetal bovine serum (GIBCO), IGROV-1 and IGROV-1/Pt were grown in DMEM containing 10% foetal bovine serum (GIBCO),
(§2) Tumour cells were seeded in 96-well tissue culture plates at approximately 10% confluence and were allowed to attach and recover for at least 24 h. Varying concentrations of the drugs were then added to each well to calculate their IC50 value (the concentration which inhibits the 50% of cell survival). The plates were incubated for 24 h at 37° C. At the end of the treatment, for NB4 tumour cells in suspension, the procedure was performed as follows: medium culture was removed by centrifugation of the plates at 1600×g for 10 min and the surnatant was removed. 250 μl PBS were added, then the plates were centrifuged at 1600×g for 10 min, the surnatant was removed. 200 μl/well of medium culture RPMI 1640 containing 10% FCS were added and the plates were incubated at 37° C. for other 48 h. The plates were centrifuged again at 1600×g for 10 min, the medium culture was removed and 200 μl PBS and 50 μl of cold 80% TCA were added. The plates were incubated on ice for at least 1 h. TCA was removed, the plates were washed 3 times for immersion in distilled-water and dried on paper and at 40° C. for 5 min. Then 200 μl of 0.4% sulphorodamine B in 1% acetic acid were added. The plates were incubated at room temperature for other 30 min. Sulphorodamine B was removed, the plates were washed for immersion in 1% acetic acid for 3 times, then they were dried on paper and at 40° C. for 5 min. Then 200 μl Tris 10 mM were added, the plates were kept under stirring for 20 min. The survival cell was determined as optical density by a Multiskan spectrofluorimeter at 540 nm. For the tumour cells in adhesion (NCI-H460 and HCT-116), the procedure was as above mentioned, except that at the end of the treatment, the plates were washed by remotion of the surnatant and addition of PBS 3 times without centrifugation. Also the last day of the assay, the surnatant was removed without centrifugation.
(§3) The amount of cells killed was calculated as the percentage decrease in sulphorodamine B binding compared with control cultures. The IC50 values (the concentration which inhibits the 50% of cell survival) were calculated with the “ALLFIT” program.
The resistant tumour cell line NCI H460 R9A was a clone selected for the resistance to ST1926 (Table 3). To obtain the resistant tumour cell line, the sensitive NCI-H460 tumour cells were treated with 2 μM ST1926 for 24 hours and maintained in drug-free medium for a recovering time of 7 days. Then, survived cells were cultured applying a continuous selective pressure of 2 μM (10×IC50) ST1926. Resistant NCI-H460 cells were subculture for 3-4 times before increasing ST1926 concentration to 4 μM (20×IC50). Survived cells were seeded in 96-well plates to isolate resistant cells clones and maintained in complete medium with 4 μM of ST1926. The tumour cell line was maintained at least for one week, before seeding for SRB cytotoxicity assay, in drug-free medium.
To evaluate the effect of the compound on survival cells, the sulphorodamine B test was used. […]

[2] = test system: HCT-116 human colon carcinoma cells; assay: Sulphorodamine B cytotoxicity test on HCT-116 cells; type: cell-based; details: Homo sapiens, Table 2, SRB, read-out: IC50 ± SD, HCT-116
Excerpt: as §1, §2, §3

[3] = test system: NB4 promyelocytic leukaemia cells; assay: Differentiation of NB4 tumour cells by nitroblue tetrazolium (NBT) reduction, with or without ATRA; type: cell-based, human; details: 3 days, NBT-reducing activity; for AC50: Homo sapiens, 72 h, combined with suboptimal ATRA (5 nM); for Differentiation AC50: compound alone (without ATRA)
Excerpt: Relevant aspects of the differentiation program set in motion by ATRA in APL cells can be reproduced in primary cultures of leukemic blasts and in the derived NB4 cell line, which is a unique model for the study of the pharmacologic activity of ATRA and derivatives. Pharmacological concentrations of ATRA arrest the growth of NB4 blasts and differentiate them into cells that resemble mature neutrophils. This is followed by a slow process of apoptosis. […] In particular, the differentiation of NB4 tumour cells induced by the compounds was determined by nitroblue tetrazolium (NBT) reduction. NB4 promyelocytic leukaemia cells were seeded at a density of 150000 cells/ml in RPMI 1640 medium containing 10% FCS. To measure the cytodifferentiating effect of the molecules, tumour cells were treated with the compounds at different concentrations starting from at least 0.4 μM to 0.01 μM, whereas to measure the enhancing action of the molecules of ATRA activity, NB4 cells were treated with increasing concentrations of the molecules in the presence or absence of ATRA at a suboptimal concentration (5 nM).
Tumour cells were incubated for 3 days at 37° C. without replacing the medium culture. To measure the prodifferentiative effect, 500,000 cells were collected, centrifuged and resuspended in 1 ml of RPMI 1640 medium containing 10% FCS, 1 mg/ml of nitroblue tetrazolium (NBT) and 100 ng of PMA (4-phorbol-12-myristate-13-acetate). The tumour cells resuspended were incubated at 37° C. for 60 min. At the end of the incubation, tumour cells were centrifuged and the pellet was resuspended in 1 ml of PBS containing Triton ×100 at 10%. The samples were sonicated and the absorbance was determined at 540 nm with a spectrophotometer. Differentiation of tumor cells as AC50 (activating concentration) was evaluated as the concentration of the compound giving 50% of the maximal induction of NBT-reducing activity with or without ATRA.

[4] = test system: IGROV-1 (sensitive ovarian carcinoma cells); assay: Sulphorodamine B cytotoxicity test on IGROV-1 cells; type: cell-based; details: Homo sapiens, read-out: IC50 ± SD, IGROV-1
Excerpt: as §1, §2, §3

[5] = test system: IGROV-1/Pt (platinum-resistant ovarian carcinoma cells); assay: Sulphorodamine B cytotoxicity test on IGROV-1/Pt cells; type: cell-based; details: Homo sapiens, read-out: IC50 ± SD, IGROV-1/Pt
Excerpt: as §1, §2, §3

[6] = test system: NCI-H460 non-small cell carcinoma cells; assay: Sulphorodamine B cytotoxicity test on NCI-H460 cells; type: cell-based; details: Homo sapiens, SRB, read-out: IC50 ± SD, NCI-H460
Protocol: The chemical structures of the tested compounds of the invention and of the corresponding compounds bearing a carboxylic acid group are reported in FIG. 1. […] NB4 and NCI-H460 tumour cells were grown in RPMI 1640 containing 10% foetal bovine serum (GIBCO), HCT-116 tumour cells were grown in McCoy's 5A containing 10% foetal bovine serum (GIBCO), IGROV-1 and IGROV-1/Pt were grown in DMEM containing 10% foetal bovine serum (GIBCO),
as §2, §3

[7] = test system: NB4 human promyelocytic leukaemia; assay: Sulphorodamine B cytotoxicity test on NB4 cells; type: cell-based; details: Homo sapiens, NB-4
Excerpt: as §1, §2, §3

[8] = Table 4, NB4 tumour cells, compound alone, read-out: IC50 (μM ± SD)

SMILES | overcoming of resistance on H460/R9A [1] | IC50 [1] [µM] | IC50 [2] [µM] | AC50 [3] [µM] | Differentiation AC50 [3] | IC50 ([4]; Table 1, SRB) [µM] | IC50 ([5]; Table 1, SRB) [µM] | IC50 ([6]; NCI-H460, Table 2, NCI-H460) [µM] | IC50 ([7]; Table 1, NB4, 24 h treatment, 48 h recovery, SRB, read-out: IC50 ± SD, NB4) [µM] | IC50 [7, 8] [µM] | RI (resistance index) ([1]; IC50 on resistant tumour cell line/IC50 on sensitive tumour cell line (NCI-H460 R9A / NCI-H460)) | IC50 ([4]; Table 2, SRB) [µM] | IC50 ([5]; Table 2, SRB) [µM] | IC50 ([6]; NCI-H460, Table 3, sensitive NCI-H460) [µM]
O=C(/C=C/c1ccc(-c2ccc(O)cc2)cc1)NO [ST2782, E-3-(4′-hydroxy-biphenyl-4-yl)-N-hydroxy-acrylamide] | the same characteristic are retained | 1.8 ± 0.16 | 6.7 ± 0.7 | 2.47 | no differentiation | 8.8 ± 3 | 7.7 ± 1.6 | 6 ± 0.9 | 2.3 ± 0.02 | 2.3 ± 0.02 | – | – | – | –
O=C(/C=C/c1ccc(-c2ccc(O)c(C34CC5CC(CC(C5)C3)C4)c2)cc1)NO [ST2992, E-3-[3′-(1-adamantyl)-4′-hydroxy-biphenyl-4-yl]-N-hydroxy-acrylamide] | completely overcame the resistance | 1.2 ± 0.1 | 3 ± 0.2 | 0.19 | no differentiation | – | – | 1.2 ± 0.03 | – | 0.68 ± 0.07 | 1.0 | 0.77 ± 0.05 | 0.55 ± 0.05 | 1.2 ± 0.03
